Measured values reported in patent US10947227B2, “Tricyclic heterocyclic compounds as sting activators” (Incyte Corporation, priority 2018, dated 2021).
pEC50: −log10 of the molar value.

System: IRF3 activation in THP-1 Dual Cells
Test: IRF3 activation assay in THP-1 Dual Cells (QUANTI-Blue readout)
Type: cell-based
Conditions: Homo sapiens, THP1-Dual, 24 h, Table 2, 24 hours incubation
Method in brief: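 THP-1 Dual cells (100,000/well) were incubated with serially diluted compounds 24 h at 37 °C. […]; EC50 from percent control activity versus log concentration.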

| SMILES | pEC50 |
| --- | --- |
| CCn1nc(C)cc1C(=O)Nc1nc2cc(C(N)=O)cc(OCCCOC(=O)NCCC(=O)O)c2n1C/C=C/Cn1c2nc(-c3cc(C)nn3CC)ncc2c2cc(C(N)=O)cc(OCCCOC)c21 [Example 43, (E)-3-(((3-((5-carbamoyl-1-(4-(6-carbamoyl-2-(1-ethyl-3-methyl-1H-pyrazol-5-yl)-8-(3-methoxypropoxy)-9H-pyrimido[4,5-b]indol-9-yl)but-2-en-1-yl)-2-(1-ethyl-3-methyl-1H-pyrazole-5-carboxamido)-1H-benzo[d]imidazol-7-yl)oxy)propoxy)carbonyl)amino)propanoic Acid] | > 7.30 |
| CCn1nc(C)cc1C(=O)Nc1nc2cc(C(N)=O)cc(OCCOCCOCCC(=O)O)c2n1C/C=C/Cn1c2nc(-c3cc(C)nn3CC)ncc2c2cc(C(N)=O)cc(OCCCOC)c21 [Example 44, (E)-3-(2-(2-((5-carbamoyl-1-(4-(6-carbamoyl-2-(1-ethyl-3-methyl-1H-pyrazol-5-yl)-8-(3-methoxypropoxy)-9H-pyrimido[4,5-b]indol-9-yl)but-2-en-1-yl)-2-(1-ethyl-3-methyl-1H-pyrazole-5-carboxamido)-1H-benzo[d]imidazol-7-yl)oxy)ethoxy)ethoxy)propanoic Acid] | > 7.30 |
| CCn1nc(C)cc1C(=O)Nc1nc2cc(C(N)=O)cc(OCCCNS(=O)(=O)CCCC(=O)O)c2n1C/C=C/Cn1c2nc(-c3cc(C)nn3CC)ncc2c2cc(C(N)=O)cc(OCCCOC)c21 [Example 45, (E)-4-(N-(3-((5-carbamoyl-1-(4-(6-carbamoyl-2-(1-ethyl-3-methyl-1H-pyrazol-5-yl)-8-(3-methoxypropoxy)-9H-pyrimido[4,5-b]indol-9-yl)but-2-en-1-yl)-2-(1-ethyl-3-methyl-1H-pyrazole-5-carboxamido)-1H-benzo[d]imidazol-7-yl)oxy)propyl)sulfamoyl)butanoic Acid] | > 7.30 |
| CCn1nc(C)cc1C(=O)Nc1nc2cc(C(N)=O)cc(OC)c2n1C/C=C/Cn1c2nc(-c3cc(C)nn3CC)ncc2c2cc(C(N)=O)cc(OCCCNC(=O)CCCC(=O)O)c21 [Example 46, (E)-5-(3-(6-carbamoyl-9-(4-(5-carbamoyl-2-(1-ethyl-3-methyl-1H-pyrazole-5-carboxamido)-7-methoxy-1H-benzo[d]imidazol-1-yl)but-2-enyl)-2-(1-ethyl-3-methyl-1H-pyrazol-5-yl)-9H-pyrimido[4,5-b]indol-8-yloxy)propylamino)-5-oxopentanoic Acid] | > 7.30 |
| CCn1nc(C)cc1C(=O)Nc1nc2cc(C(N)=O)cc(OC)c2n1C/C=C/Cn1c2nc(-c3cc(C)nn3CC)ncc2c2cc(C(N)=O)cc(OCCCNC(=O)OCCC(=O)O)c21 [Example 47, (E)-3-(3-(6-carbamoyl-9-(4-(5-carbamoyl-2-(1-ethyl-3-methyl-1H-pyrazole-5-carboxamido)-7-methoxy-1H-benzo[d]imidazol-1-yl)but-2-enyl)-2-(1-ethyl-3-methyl-1H-pyrazol-5-yl)-9H-pyrimido[4,5-b]indol-8-yloxy)propylcarbamoyloxy)propanoic Acid] | > 7.30 |
| CCn1nc(C)cc1C(=O)Nc1nc2cc(C(N)=O)cc(OCCCO)c2n1C/C=C/Cn1c2nc(-c3cc(C)nn3CC)ncc2c2cc(C(N)=O)cc(OCCCNC(=O)CCCC(=O)O)c21 [Example 48, (E)-5-(3-(6-carbamoyl-9-(4-(5-carbamoyl-2-(1-ethyl-3-methyl-1H-pyrazole-5-carboxamido)-7-(3-hydroxypropoxy)-1H-benzo[d]imidazol-1-yl)but-2-enyl)-2-(1-ethyl-3-methyl-1H-pyrazol-5-yl)-9H-pyrimido[4,5-b]indol-8-yloxy)propylamino)-5-oxopentanoic Acid] | > 7.30 |
| CCn1nc(C)cc1C(=O)Nc1nc2cc(C(N)=O)cc(OCCCO)c2n1C/C=C/Cn1c2nc(-c3cc(C)nn3CC)ncc2c2cc(C(N)=O)cc(OCCCNC(=O)OCCC(=O)O)c21 [Example 49, (E)-3-(3-(6-carbamoyl-9-(4-(5-carbamoyl-2-(1-ethyl-3-methyl-1H-pyrazole-5-carboxamido)-7-(3-hydroxypropoxy)-1H-benzo[d]imidazol-1-yl)but-2-enyl)-2-(1-ethyl-3-methyl-1H-pyrazol-5-yl)-9H-pyrimido[4,5-b]indol-8-yloxy)propylcarbamoyloxy)propanoic Acid] | > 7.30 |
| CCn1nc(C)cc1C(=O)Nc1nc2cc(C(N)=O)cc(OCCCOC)c2n1C/C=C/Cn1c2nc(-c3cc(C)nn3CC)ncc2c2cc(C(N)=O)cc(OCCCNC(=O)CCCC(=O)O)c21 [Example 50, (E)-5-(3-(6-carbamoyl-9-(4-(5-carbamoyl-2-(1-ethyl-3-methyl-1H-pyrazole-5-carboxamido)-7-(3-methoxypropoxy)-1H-benzo[d]imidazol-1-yl)but-2-enyl)-2-(1-ethyl-3-methyl-1H-pyrazol-5-yl)-9H-pyrimido[4,5-b]indol-8-yloxy)propylamino)-5-oxopentanoic Acid] | > 7.30 |
| CCn1nc(C)cc1C(=O)Nc1nc2cc(C(N)=O)cc(OCCCOC)c2n1C/C=C/Cn1c2nc(-c3cc(C)nn3CC)ncc2c2cc(C(N)=O)cc(OCCCNC(=O)OCCC(=O)O)c21 [Example 51, (E)-3-(3-(6-carbamoyl-9-(4-(5-carbamoyl-2-(1-ethyl-3-methyl-1H-pyrazole-5-carboxamido)-7-(3-methoxypropoxy)-1H-benzo[d]imidazol-1-yl)but-2-enyl)-2-(1-ethyl-3-methyl-1H-pyrazol-5-yl)-9H-pyrimido[4,5-b]indol-8-yloxy)propylcarbamoyloxy)propanoic Acid] | > 7.30 |

Further lines, results first:

| pEC50 | SMILES |
| --- | --- |
| 6.70 to 7.30 | CCn1nc(C)cc1C(=O)Nc1nc2cc(C(N)=O)cc(OCCCOC)c2n1C/C=C/Cn1c2nc(-c3cc(C)nn3CC)ncc2c2cc(C(N)=O)cc(OCCCOC(=O)NCCC(=O)O)c21 [Example 52, (E)-3-((3-(6-carbamoyl-9-(4-(5-carbamoyl-2-(1-ethyl-3-methyl-1H-pyrazole-5-carboxamido)-7-(3-methoxypropoxy)-1H-benzo[d]imidazol-1-yl)but-2-enyl)-2-(1-ethyl-3-methyl-1H-pyrazol-5-yl)-9H-pyrimido[4,5-b]indol-8-yloxy)propoxy)carbonylamino)propanoic Acid] |
| 6.70 to 7.30 | CCn1nc(C)cc1C(=O)Nc1nc2cc(C(N)=O)cc(OCCCOC)c2n1C/C=C/Cn1c2nc(-c3cc(C)nn3CC)ncc2c2cc(C(N)=O)cc(OCCOCCOCCC(=O)O)c21 [Example 53, (E)-3-(2-(2-(6-carbamoyl-9-(4-(5-carbamoyl-2-(1-ethyl-3-methyl-1H-pyrazole-5-carboxamido)-7-(3-methoxypropoxy)-1H-benzo[d]imidazol-1-yl)but-2-enyl)-2-(1-ethyl-3-methyl-1H-pyrazol-5-yl)-9H-pyrimido[4,5-b]indol-8-yloxy)ethoxy)ethoxy)propanoic Acid] |
| 6.70 to 7.30 | CCn1nc(C)cc1C(=O)Nc1nc2cc(C(N)=O)cc(OCCCOC)c2n1C/C=C/Cn1c2nc(-c3cc(C)nn3CC)ncc2c2cc(C(N)=O)cc(OCCOCCOCCOCCC(=O)O)c21 [Example 54, (E)-3-(2-(2-(2-(6-carbamoyl-9-(4-(5-carbamoyl-2-(1-ethyl-3-methyl-1H-pyrazole-5-carboxamido)-7-(3-methoxypropoxy)-1H-benzo[d]imidazol-1-yl)but-2-enyl)-2-(1-ethyl-3-methyl-1H-pyrazol-5-yl)-9H-pyrimido[4,5-b]indol-8-yloxy)ethoxy)ethoxy)ethoxy)propanoic Acid] |
| 6.70 to 7.30 | CCn1nc(C)cc1C(=O)Nc1nc2cc(C(N)=O)cc(OC)c2n1C/C=C/Cn1c2nc(-c3cc(C)nn3CC)ncc2c2cc(C(N)=O)cc(OCCC3CCN(CCCC(=O)O)CC3)c21 [Example 55, (E)-4-(4-(2-(6-carbamoyl-9-(4-(5-carbamoyl-2-(1-ethyl-3-methyl-1H-pyrazole-5-carboxamido)-7-methoxy-1H-benzo[d]imidazol-1-yl)but-2-enyl)-2-(1-ethyl-3-methyl-1H-pyrazol-5-yl)-9H-pyrimido[4,5-b]indol-8-yloxy)ethyl)piperidin-1-yl)butanoic Acid] |
| 6.70 to 7.30 | CCn1nc(C)cc1C(=O)Nc1nc2cc(C(N)=O)cc(OC)c2n1C/C=C/Cn1c2nc(-c3cc(C)nn3CC)ncc2c2cc(C(N)=O)cc(OCCC3CCN(C(=O)OCC(=O)O)CC3)c21 [Example 56, (E)-2-(4-(2-(6-carbamoyl-9-(4-(5-carbamoyl-2-(1-ethyl-3-methyl-1H-pyrazole-5-carboxamido)-7-methoxy-1H-benzo[d]imidazol-1-yl)but-2-enyl)-2-(1-ethyl-3-methyl-1H-pyrazol-5-yl)-9H-pyrimido[4,5-b]indol-8-yloxy)ethyl)piperidine-1-carbonyloxy)acetic Acid] |
| 6.70 to 7.30 | CCn1nc(C)cc1C(=O)Nc1nc2cc(C(N)=O)cc(OCCCO)c2n1C/C=C/Cn1c2nc(-c3cc(C)nn3CC)ncc2c2cc(C(N)=O)cc(OCCCOC(=O)NCCC(=O)O)c21 [Example 57, (E)-3-((3-(6-carbamoyl-9-(4-(5-carbamoyl-2-(1-ethyl-3-methyl-1H-pyrazole-5-carboxamido)-7-(3-hydroxypropoxy)-1H-benzo[d]imidazol-1-yl)but-2-enyl)-2-(1-ethyl-3-methyl-1H-pyrazol-5-yl)-9H-pyrimido[4,5-b]indol-8-yloxy)propoxy)carbonylamino)propanoic Acid] |
| 6.30 to 6.70 | CCn1nc(C)cc1C(=O)Nc1nc2cc(C(N)=O)cc(OCCCOC(=O)NCCC(=O)O)c2n1C/C=C/Cn1c2nc(-c3cc(C)nn3CC)ncc2c2cc(C(N)=O)cc(OCCOCCOCCC(=O)O)c21 [Example 58, (E)-3-(((3-((5-carbamoyl-1-(4-(6-carbamoyl-8-(2-(2-(2-carboxyethoxy)ethoxy)ethoxy)-2-(1-ethyl-3-methyl-1H-pyrazol-5-yl)-9H-pyrimido[4,5-b]indol-9-yl)but-2-en-1-yl)-2-(1-ethyl-3-methyl-1H-pyrazole-5-carboxamido)-1H-benzo[d]imidazol-7-yl)oxy)propoxy)carbonyl)amino)propanoic Acid] |
